What is called IC50 is the concentration at which inhibition is half-maximal. One may read the EC50 as the concentration needed to bring the measured effect to its halfway point. For orientation: CC50 means the concentration that lowers cell viability or growth by half. Broadly, the AC50 is the concentration at which the activity in the assay is half-maximal.

Calls of active or inactive are those of the source.

Experiment [1] addresses T1, Apoptotic protease-activating factor 1 (Homo sapiens, UniProt O14727).
T1 sequence (O14727 whole entry): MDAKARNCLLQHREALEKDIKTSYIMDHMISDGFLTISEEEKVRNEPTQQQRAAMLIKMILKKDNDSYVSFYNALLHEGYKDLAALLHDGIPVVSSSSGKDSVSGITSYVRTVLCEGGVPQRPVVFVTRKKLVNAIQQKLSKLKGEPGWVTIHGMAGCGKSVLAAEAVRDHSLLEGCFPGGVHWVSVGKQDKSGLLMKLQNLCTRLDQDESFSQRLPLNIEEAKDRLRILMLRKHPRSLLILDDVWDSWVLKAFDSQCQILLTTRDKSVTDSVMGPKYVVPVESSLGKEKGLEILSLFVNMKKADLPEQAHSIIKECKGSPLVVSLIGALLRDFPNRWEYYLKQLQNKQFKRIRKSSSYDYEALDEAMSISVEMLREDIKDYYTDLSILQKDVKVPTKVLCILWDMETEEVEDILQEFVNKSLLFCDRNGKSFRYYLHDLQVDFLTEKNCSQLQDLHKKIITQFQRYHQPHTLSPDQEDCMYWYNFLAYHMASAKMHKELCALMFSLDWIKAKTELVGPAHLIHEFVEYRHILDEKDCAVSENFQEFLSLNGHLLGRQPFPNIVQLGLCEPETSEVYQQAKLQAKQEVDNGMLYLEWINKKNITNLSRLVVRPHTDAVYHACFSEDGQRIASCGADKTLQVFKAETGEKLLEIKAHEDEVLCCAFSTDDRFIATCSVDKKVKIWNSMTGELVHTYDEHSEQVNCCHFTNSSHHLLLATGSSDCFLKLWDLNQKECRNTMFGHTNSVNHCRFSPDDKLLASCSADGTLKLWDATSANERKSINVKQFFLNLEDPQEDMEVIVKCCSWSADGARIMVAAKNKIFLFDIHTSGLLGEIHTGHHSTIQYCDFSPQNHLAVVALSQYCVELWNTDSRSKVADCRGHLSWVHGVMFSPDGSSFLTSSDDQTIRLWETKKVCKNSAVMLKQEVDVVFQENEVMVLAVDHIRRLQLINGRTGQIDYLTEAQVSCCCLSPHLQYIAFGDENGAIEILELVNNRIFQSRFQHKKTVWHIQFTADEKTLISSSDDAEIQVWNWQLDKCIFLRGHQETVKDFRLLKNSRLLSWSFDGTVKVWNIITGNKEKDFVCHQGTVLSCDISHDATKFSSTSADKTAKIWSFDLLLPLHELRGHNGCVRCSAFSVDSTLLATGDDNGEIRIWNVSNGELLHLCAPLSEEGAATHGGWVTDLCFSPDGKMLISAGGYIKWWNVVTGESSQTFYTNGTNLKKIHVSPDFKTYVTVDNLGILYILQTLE
The format is functional.

Experiment [2] concerns the target Voltage-dependent T-type calcium channel subunit alpha-1H (Homo sapiens, UniProt O95180). It is filed as functional.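 Also: channel activity triggered by adding a high calcium stimulation buffer.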
A further experiment deals with Vero. Briefly: cells. It is filed as functional. The settings on record: Chlorocebus sabaeus.
For experiment [3], the system named is Streptococcus sp. 'group A'. Briefly: growth inhibition of control SK(-) GAS strain, dose response, counter-screen for streptokinase expression inhibitor project, luminescence, kanamycin, BacTiterGlo, confirmation (AID 1900). It is filed as functional, organism-based. A general note: A counterscreen serves to expose hits that act by an unwanted route or on another target.

A further experiment has as its system Streptococcus. Briefly: Group A Streptococcus viability loss, dose response, counter-screen for streptokinase expression inhibitor project, luminescence, BacTiterGlo (AID 1915).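 Also: potency for reduction of bacterial viability or growth.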 It is filed as functional, organism-based.
For the next experiment, the system named is INS1. Briefly: beta cell apoptosis inhibitors, cytokine rescue, dose response, luminescence, retest (AID 449756).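 Also: cell death triggered by IL-1 beta plus TNF-alpha plus IFN-gamma mixture; protective hits raise ATP signal compared with cytokine alone wells.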 As to conditions: Rattus norvegicus. The format is functional, cell-based.
Experiment [4] addresses T2, Voltage-gated N-type calcium channel alpha-1B subunit/Amyloid beta A4 precursor protein-binding family A member 1 (Homo sapiens, UniProt Q00975+Q02410). It is filed as protein assay.
Another experiment addresses T3, Estrogen receptor (Homo sapiens, UniProt P03372).
T3 sequence (P03372 whole entry): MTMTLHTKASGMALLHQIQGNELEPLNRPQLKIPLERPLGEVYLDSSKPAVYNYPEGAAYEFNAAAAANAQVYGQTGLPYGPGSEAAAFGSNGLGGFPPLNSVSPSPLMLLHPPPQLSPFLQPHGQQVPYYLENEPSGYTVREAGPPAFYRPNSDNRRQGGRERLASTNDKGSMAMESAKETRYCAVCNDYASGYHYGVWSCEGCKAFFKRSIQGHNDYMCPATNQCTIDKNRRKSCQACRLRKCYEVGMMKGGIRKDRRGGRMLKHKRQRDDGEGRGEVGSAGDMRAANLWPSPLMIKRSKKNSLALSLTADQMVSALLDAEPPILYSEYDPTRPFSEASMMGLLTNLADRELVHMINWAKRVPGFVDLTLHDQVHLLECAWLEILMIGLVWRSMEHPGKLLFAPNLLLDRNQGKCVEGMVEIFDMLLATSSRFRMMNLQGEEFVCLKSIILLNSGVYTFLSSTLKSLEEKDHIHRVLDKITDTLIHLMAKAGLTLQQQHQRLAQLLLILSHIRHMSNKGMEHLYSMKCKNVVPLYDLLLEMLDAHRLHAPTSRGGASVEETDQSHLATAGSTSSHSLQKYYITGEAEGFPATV

The next experiment has as its target T4, Streptokinase A (Streptococcus pyogenes serotype M1, UniProt P10520).
T4 sequence (P10520 whole entry): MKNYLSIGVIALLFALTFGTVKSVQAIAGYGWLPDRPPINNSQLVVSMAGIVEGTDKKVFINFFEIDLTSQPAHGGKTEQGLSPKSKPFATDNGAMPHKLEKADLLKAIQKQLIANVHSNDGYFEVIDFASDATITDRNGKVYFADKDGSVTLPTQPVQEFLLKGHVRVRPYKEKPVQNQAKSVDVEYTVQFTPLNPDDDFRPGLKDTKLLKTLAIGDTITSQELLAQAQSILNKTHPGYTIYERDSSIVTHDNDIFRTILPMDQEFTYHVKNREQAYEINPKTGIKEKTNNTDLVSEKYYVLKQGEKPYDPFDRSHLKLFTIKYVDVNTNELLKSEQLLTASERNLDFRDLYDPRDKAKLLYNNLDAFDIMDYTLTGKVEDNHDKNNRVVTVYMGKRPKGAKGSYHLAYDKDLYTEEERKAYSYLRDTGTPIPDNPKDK
Briefly: S. pyogenes streptokinase expression inhibitors, potency, dose response, plasminogen activation absorbance, OD405 (AID 1914).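 Also: secreted streptokinase activity via plasminogen activation per viability signal from cell pellet.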 It is filed as functional, Streptococcus pyogenes M1 GAS.

The target of experiment [5] is T2, Voltage-gated N-type calcium channel alpha-1B subunit/Amyloid beta A4 precursor protein-binding family A member 1. The format is protein assay. The source holds these as a separate data set.
The subject of the next experiment is HeLa. Briefly: HeLa cell cytotoxicity, dose response, cytotoxicity control for MITF activator project, CellTiter-Glo luminescence, cherry-pick samples (AID 540259). The format is functional, cell-based. The settings on record: Homo sapiens. (In general: ATP-based viability assays read luminescence as a measure of living cells.)
The target in experiment [6] is T5, Estrogen receptor beta (Homo sapiens, UniProt Q92731).
T5 sequence (Q92731 whole entry): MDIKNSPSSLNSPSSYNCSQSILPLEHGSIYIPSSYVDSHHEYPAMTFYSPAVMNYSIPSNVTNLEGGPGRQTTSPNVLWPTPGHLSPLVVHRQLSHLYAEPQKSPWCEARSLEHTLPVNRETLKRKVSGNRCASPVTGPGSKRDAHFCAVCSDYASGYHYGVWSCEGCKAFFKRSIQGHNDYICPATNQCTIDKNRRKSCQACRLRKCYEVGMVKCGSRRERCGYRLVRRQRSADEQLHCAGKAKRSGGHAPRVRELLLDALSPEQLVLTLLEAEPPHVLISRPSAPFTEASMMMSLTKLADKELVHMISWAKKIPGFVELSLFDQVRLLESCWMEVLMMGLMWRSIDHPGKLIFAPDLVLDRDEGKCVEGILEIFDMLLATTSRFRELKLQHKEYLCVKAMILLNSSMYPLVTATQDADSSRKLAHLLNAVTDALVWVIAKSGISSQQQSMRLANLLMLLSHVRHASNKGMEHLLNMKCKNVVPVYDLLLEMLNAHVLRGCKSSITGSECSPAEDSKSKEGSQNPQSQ
Experiment [7] concerns the target T5, Estrogen receptor beta. Put plainly: ERβ–SRC-3 coactivator interaction inhibitors, confirmation, orthogonal assay, biochemical, ELISA, streptavidin-HRP readout (AID 1060).

T2 sequence (Q00975 whole entry): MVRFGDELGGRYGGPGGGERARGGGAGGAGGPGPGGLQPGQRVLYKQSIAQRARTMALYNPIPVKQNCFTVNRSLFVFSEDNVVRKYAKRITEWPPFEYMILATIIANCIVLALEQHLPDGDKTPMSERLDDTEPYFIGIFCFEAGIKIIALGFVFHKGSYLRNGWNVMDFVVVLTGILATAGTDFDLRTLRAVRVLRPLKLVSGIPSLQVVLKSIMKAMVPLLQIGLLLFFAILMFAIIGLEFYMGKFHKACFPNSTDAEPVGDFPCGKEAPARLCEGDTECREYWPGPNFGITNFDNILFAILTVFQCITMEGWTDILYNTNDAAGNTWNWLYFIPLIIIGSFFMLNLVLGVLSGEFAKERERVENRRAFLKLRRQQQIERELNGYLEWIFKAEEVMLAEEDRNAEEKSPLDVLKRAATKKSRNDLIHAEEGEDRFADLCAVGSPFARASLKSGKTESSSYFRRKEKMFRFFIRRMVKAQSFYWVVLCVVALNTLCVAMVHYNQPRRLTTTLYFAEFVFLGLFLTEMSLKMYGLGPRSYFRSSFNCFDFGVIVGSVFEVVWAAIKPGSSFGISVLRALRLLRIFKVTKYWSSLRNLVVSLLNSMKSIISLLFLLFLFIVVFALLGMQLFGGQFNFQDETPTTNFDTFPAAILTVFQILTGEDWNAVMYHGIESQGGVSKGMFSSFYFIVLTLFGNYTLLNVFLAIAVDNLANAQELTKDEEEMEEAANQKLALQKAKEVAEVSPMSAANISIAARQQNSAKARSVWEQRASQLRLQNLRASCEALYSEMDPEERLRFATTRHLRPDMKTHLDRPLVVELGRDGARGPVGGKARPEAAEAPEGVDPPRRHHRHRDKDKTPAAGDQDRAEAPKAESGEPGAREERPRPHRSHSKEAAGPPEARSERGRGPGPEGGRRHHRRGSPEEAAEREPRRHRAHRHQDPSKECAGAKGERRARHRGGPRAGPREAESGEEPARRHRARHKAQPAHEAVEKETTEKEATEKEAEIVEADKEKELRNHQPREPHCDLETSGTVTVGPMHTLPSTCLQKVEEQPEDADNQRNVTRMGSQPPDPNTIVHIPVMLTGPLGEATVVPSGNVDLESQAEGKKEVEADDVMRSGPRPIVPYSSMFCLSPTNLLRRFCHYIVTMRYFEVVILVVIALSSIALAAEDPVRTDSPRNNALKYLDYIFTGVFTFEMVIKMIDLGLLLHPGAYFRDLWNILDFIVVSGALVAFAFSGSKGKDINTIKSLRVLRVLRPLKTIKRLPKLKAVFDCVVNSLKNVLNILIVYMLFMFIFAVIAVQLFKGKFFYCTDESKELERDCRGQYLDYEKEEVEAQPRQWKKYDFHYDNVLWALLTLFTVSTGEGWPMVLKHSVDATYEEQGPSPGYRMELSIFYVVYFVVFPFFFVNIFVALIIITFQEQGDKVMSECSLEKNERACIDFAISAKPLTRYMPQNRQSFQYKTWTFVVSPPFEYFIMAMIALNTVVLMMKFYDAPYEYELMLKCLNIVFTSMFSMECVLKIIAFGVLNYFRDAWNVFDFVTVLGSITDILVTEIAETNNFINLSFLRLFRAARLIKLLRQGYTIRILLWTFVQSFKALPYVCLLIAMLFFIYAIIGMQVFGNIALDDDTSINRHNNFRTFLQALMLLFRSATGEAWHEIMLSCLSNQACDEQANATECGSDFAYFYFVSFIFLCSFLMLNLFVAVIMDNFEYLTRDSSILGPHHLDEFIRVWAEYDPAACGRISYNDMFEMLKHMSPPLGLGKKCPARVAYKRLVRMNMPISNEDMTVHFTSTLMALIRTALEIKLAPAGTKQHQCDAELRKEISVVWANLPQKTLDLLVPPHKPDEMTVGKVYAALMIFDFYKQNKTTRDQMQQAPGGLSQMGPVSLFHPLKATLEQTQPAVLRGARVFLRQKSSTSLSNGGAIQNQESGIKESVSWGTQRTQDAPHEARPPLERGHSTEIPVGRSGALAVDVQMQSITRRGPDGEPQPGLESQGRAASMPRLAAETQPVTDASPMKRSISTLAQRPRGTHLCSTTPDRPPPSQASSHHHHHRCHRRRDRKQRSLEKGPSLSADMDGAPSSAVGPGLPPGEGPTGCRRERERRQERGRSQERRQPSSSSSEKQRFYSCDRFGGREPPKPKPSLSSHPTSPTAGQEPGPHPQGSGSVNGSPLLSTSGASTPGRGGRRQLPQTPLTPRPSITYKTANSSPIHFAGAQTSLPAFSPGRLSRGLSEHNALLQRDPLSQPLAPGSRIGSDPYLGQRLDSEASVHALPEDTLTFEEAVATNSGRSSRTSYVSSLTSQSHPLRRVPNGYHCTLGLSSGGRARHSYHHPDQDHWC
T2 sequence (Q02410 whole entry): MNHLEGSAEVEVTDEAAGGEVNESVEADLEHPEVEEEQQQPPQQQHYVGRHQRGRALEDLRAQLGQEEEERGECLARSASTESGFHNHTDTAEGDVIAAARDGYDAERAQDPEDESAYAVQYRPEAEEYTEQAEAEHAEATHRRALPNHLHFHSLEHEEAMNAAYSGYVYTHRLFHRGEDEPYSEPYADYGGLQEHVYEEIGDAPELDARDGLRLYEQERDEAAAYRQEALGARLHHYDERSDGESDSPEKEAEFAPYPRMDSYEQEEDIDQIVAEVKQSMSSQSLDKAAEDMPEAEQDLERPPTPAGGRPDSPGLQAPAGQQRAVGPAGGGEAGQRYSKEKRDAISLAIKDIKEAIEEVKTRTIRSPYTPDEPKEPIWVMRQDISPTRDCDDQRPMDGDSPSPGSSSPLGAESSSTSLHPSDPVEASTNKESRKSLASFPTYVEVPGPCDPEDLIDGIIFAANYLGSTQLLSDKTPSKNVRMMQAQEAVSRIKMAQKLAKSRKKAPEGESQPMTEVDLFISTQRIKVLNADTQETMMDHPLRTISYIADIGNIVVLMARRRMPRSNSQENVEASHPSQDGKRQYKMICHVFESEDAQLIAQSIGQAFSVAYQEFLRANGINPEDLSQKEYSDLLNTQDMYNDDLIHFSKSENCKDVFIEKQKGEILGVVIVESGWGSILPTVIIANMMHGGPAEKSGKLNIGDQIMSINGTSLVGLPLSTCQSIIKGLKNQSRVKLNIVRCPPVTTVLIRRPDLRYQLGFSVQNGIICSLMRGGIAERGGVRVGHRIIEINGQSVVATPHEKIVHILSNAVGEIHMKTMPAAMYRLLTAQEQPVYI

`COc1ccc(-n2nc(C(=O)NCC(=O)NC3CCCC(C)C3C)c3ccccc3c2=O)c(OC)c1` (stereo not given): the IC50 in experiment [1] is 14.5 µM (active).
For `CCCCCCc1cc2cc(-c3nnc(-c4ccccc4)o3)c(=O)oc2cc1O`, the concentration giving a half-maximal response (EC50) in experiment [2] was 3 µM (active); in experiment [3], 6.12 µM (active); in the experiment on Streptococcus it was 38.7 µM (inconclusive); at Streptokinase A, > 150 µM (not active). Moreover, in the experiment on Vero, the CC50 is 11.3 µM (active). Also, in the experiment with INS1, the half-maximal activity concentration (AC50) is 7.4 µM (active). In addition, the concentration for half-maximal inhibition (IC50) in experiment [1] is 11.7 µM (active); in experiment [4], > 50 µM (inactive); on Estrogen receptor it was 34.9 µM (not active); in experiment [5], 9.32 µM (active).
`Cc1snc2sc(C(=O)c3ccc(Br)cc3)c(N)c12`: in the experiment on HeLa, the AC50 was 67.4 µM (active). In addition, the IC50 at Estrogen receptor beta [6] was > 50 µM (not active); on Estrogen receptor beta [7], 0.0857 µM (not active); at Estrogen receptor, 28.2 µM (active).
